Earlier results, collected in US20240401031A1, “Platform Using iPSC-Derived Cardiomyocytes Carrying Gene Variants as Models of Cardiac Disease and Drug-Response” (SRI INTERNATIONAL, priority 2021, published 2024).

Conditions: source CredibleMeds

Structure (SMILES)	Risk (Torsade de Pointes)
Cl.Cl.OCCN1CCN(CCC=C2c3ccccc3Sc3ccc(C(F)(F)F)cc32)CC1 (mixture of isomers) [Flupentixol]	(PR)
C[C@]12CC[C@H](O)CC1=CC[C@@H]1[C@@H]2CC[C@]2(C)C(c3cccnc3)=CC[C@@H]12 [Abiraterone]	(CR)
COc1cc2nc(N(C)CCCNC(=O)C3CCCO3)nc(N)c2cc1OC (stereo not shown) [Alfuzosin]	(PR)
CCCCc1oc2ccccc2c1C(=O)c1cc(I)c(OCCN(CC)CC)c(I)c1 [Amiodarone]	(KR)
CCN1CCCC1CNC(=O)c1cc(S(=O)(=O)CC)c(N)cc1OC (stereo not shown) [Amisulpride]	(CR)
CN(C)CCC=C1c2ccccc2CCc2ccccc21 [Amitriptyline]	(CR)
CC(N)Cc1ccccc1 (stereo not shown) [Amphetamine]	(SR)
O=C1CN2Cc3c(ccc(Cl)c3Cl)N=C2N1 [Anagrelide]	(KR)
CNC(=O)c1ccc(N2C(=S)N(c3cnc(C#N)c(C(F)(F)F)c3)C(=O)C23CCC3)cc1F [Apalutamide]	(PR)
CN1CCc2cccc3c2[C@H]1Cc1ccc(O)c(O)c1-3 [Apomorphine]	(PR)
O=C1CCc2ccc(OCCCCN3CCN(c4cccc(Cl)c4Cl)CC3)cc2N1 [Aripiprazole]	(PR)
[As] [Arsenic]	(KR)
CN1CC2c3ccccc3Oc3ccc(Cl)cc3C2C1 (stereo not shown) [Asenapine]	(PR)
COc1ccc(CCN2CCC(Nc3nc4ccccc4n3Cc3ccc(F)cc3)CC2)cc1 [Astemizole]	(KR)
COC(=O)N[C@H](C(=O)N[C@@H](Cc1ccccc1)[C@@H](O)CN(Cc1ccc(-c2ccccn2)cc1)NC(=O)[C@@H](NC(=O)OC)C(C)(C)C)C(C)(C)C [Atazanavir]	(CR)
CNCC[C@@H](Oc1ccccc1C)c1ccccc1 [Atomoxetine]	(PR)

Structure (SMILES)	Risk (Torsade de Pointes)
CC[C@H]1OC(=O)[C@H](C)[C@@H](O[C@H]2C[C@@](C)(OC)[C@@H](O)[C@H](C)O2)[C@H](C)[C@@H](O[C@@H]2O[C@H](C)C[C@H](N(C)C)[C@H]2O)[C@](C)(O)C[C@@H](C)CN(C)[C@H](C)[C@@H](O)[C@]1(C)O [Azithromycin]	(KR)
Cn1c(CCCC(=O)O)nc2cc(N(CCCl)CCCl)ccc21 [Bendamustine]	(PR)
NS(=O)(=O)c1cc2c(cc1C(F)(F)F)NC(Cc1ccccc1)NS2(=O)=O (stereo not shown) [Bendroflumethiazide]	(CR)
C[C@@H](Cc1ccccc1)N(C)Cc1ccccc1 [Benzphetamine]	(SR)
CC(C)COCC(CN(Cc1ccccc1)c1ccccc1)N1CCCC1 (stereo not shown) [Bepridil]	(KR)
COc1ccc(NC(=O)c2ccc(C(=N)N(C)C)cc2)c(C(=O)Nc2ccc(Cl)cn2)c1 [Betrixaban]	(PR)
CC(O)(CS(=O)(=O)c1ccc(F)cc1)C(=O)Nc1ccc(C#N)c(C(F)(F)F)c1 (stereo not shown) [Bicalutamide]	(PR)
CC(C)C[C@H](NC(=O)[C@H](Cc1ccccc1)NC(=O)c1cnccn1)B(O)O [Bortezomib]	(PR)
COc1cc(Nc2c(C#N)cnc3cc(OCCCN4CCN(C)CC4)c(OC)cc23)c(Cl)cc1Cl [Bosutinib]	(PR)
COc1cc2nccc(Oc3ccc(NC(=O)C4(C(=O)Nc5ccc(F)cc5)CC4)cc3)c2cc1OC [Cabozantinib]	(PR)
CCCCCOC(=O)Nc1nc(=O)n([C@@H]2O[C@H](C)[C@@H](O)[C@H]2O)cc1F [Capecitabine]	(PR)
Cc1cc(Nc2ncc(Cl)c(Nc3ccccc3S(=O)(=O)C(C)C)n2)c(OC(C)C)cc1C1CCNCC1 [Ceritinib]	(PR)
[Cs] [Cesium]	(KR)
CCN(CC)CCCC(C)Nc1ccnc2cc(Cl)ccc12 (stereo not shown) [Chloroquine]	(KR)
CN(C)CCCN1c2ccccc2Sc2ccc(Cl)cc21 [Chlorpromazine]	(KR)
